This is an account of results in article PMC4822341 (Cell Discovery, 2015).

One data set has as its target T1, PR (Homo sapiens, UniProt P06401).
T1 construct: expressed in transfected cells; host or cells: AD293
T1 sequence (P06401 1-933): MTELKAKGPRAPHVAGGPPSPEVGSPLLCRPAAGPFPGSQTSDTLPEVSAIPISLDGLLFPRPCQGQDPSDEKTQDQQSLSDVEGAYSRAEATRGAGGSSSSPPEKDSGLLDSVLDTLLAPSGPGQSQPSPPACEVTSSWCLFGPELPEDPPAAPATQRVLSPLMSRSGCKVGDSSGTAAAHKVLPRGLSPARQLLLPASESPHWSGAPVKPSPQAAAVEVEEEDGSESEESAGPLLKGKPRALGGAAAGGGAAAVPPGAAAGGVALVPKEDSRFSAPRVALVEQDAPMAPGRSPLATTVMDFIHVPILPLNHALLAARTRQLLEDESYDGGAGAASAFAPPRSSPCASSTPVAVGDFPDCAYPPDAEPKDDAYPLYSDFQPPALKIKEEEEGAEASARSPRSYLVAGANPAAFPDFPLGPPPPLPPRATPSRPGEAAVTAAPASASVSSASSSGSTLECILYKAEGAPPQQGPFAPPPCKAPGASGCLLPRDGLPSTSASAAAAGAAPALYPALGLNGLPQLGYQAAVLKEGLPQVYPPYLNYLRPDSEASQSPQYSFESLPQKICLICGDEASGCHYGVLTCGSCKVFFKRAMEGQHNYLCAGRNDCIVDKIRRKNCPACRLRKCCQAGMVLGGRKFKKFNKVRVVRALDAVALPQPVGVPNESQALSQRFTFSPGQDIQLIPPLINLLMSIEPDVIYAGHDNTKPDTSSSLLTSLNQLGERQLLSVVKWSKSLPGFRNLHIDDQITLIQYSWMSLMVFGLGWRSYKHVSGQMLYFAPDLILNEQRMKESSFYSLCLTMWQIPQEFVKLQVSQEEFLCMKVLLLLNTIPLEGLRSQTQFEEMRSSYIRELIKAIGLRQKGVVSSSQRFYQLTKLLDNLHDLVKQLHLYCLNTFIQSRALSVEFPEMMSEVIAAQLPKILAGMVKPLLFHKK
Description: PR reporter assay (off-target activity). The data set is classed as cell-based. The conditions noted are these: steroid 1 μM; percent of 1 μM progesterone. The method, then:
Similar to previous reports, for induction 100 ng pHHLuc (MMTV-Luc) plasmid, 0.1 ng pRShGR together with 5 ng phRGtkRenilla were transfected by X-tremeGENE 9 (Roche) into AD293 cells per well in 24-well plate. For transrepression, 10 ng AP-1-Luc or 10ng pNF-κB-luc, 100 ng pRShGR and 5 ng phRGtkRenilla were transfected into AD293 cells per well. We used the same transfection protocol for the MR and PR assays, except of the use of 0.1 ng MR or PR plasmid to substitute GR. One day after transfection, for induction, cells were directly treated by steroids for 16 h; for repression, cells were treated with either PMA at 0.6 ng ml^–1 (for AP-1 reporter) or TNFα at 2 ng ml^–1 (for NF-κB reporter), together with various steroids. Cells were collected by addition of 1× Passive Lysis Buffer (Promega, Madison, WI, USA), and luciferase activity was assayed by the Dual-Glo Luciferase system (Promega). Data were plotted as firefly luciferase activity normalized to Renilla luciferase activity in Relative Luciferase Units.
Background: In a reporter assay the amount or activity of a reporter protein is the signal.

The nature of data set [1]: Bone density (μCT) and biomechanics testing of femurs. The conditions noted are these: 2 weeks; for cortical bone thickness of femurs: μCT. The data set is classed as in vivo, DBA/1 mice. Here is the method:
Femur bones were collected and scanned by μCT (Skyscan 1172 uCT) for quantification of trabecular and cortical bone parameters. The thresholds for μCT quantification of trabecular and cortical bone parameters were set at 80–100 and 100–110, respectively. μCT analyses of cortical bone parameters were performed on 100-μCT slices (1 mm total) from the middle shaft of femurs; trabecular parameters were assessed in 100-μCT slices (1 mm total) immediately below the distal growth plate of the femur. Following uCT scans, the femurs were individually tested on a TestResources 570 Force Transducer. Bones were thawed in PBS before being tested, to ensure no brittleness was due to freezing. […] Data points were collected at a frequency of 50 Hz and a deflection rate of 0.005 mm s^–1.

Data set [2] is described as follows: Body weight (growth inhibition) of DBA/1 mice. Type of data set: in vivo. The conditions noted are these: 0.0625 mg kg^-1 daily, 2 weeks. The method, then: Figure 5 Examination of side effects of VSGC12 and FF at the effective dose. (a) Body weight of DBA/1 mice treated with the indicated daily dose of steroids for 2 weeks. Mice body weight was measured at day 0, 7 and 14. (b) Insulin-tolerance test of mice treated with the indicated daily doses of steroids for 7 days. Glucose level was measured at day 7 at various time points before and after insulin injection. Data were plotted as percent of the glucose level of time 0. (c) Plasma insulin levels of mice treated with the indicated daily doses of steroid for 7 days. (d) Spleen size and weight for mice treated with the indicated daily doses of steroid for 2 weeks. (e) Cortical bone thickness of femurs of mice treated with the indicated daily doses of steroid for 2 weeks. (f) Bone stiffness of femurs of mice treated with the indicated daily doses of steroid for 2 weeks. Mouse strain: DBA/1. Each treatment n=5, error bars indicate s.e.m., *P<0.05; **P<0.01; ***P<0.001.

Consider `CON(C)C(=O)C1(OC(=O)c2ccco2)C(C)CC2C3CC(F)C4=Cc5c(cnn5-c5ccccc5)CC4(C)C3(F)C(O)CC21C` (stereo not drawn) [VSGC12], for which, on PR, the PR activity result is “higher activity than VSG22, but a lower activity than MF, FF and FP”. Further, in data set [1] (0.0625 mg kg^-1 daily), the “bone strength (stiffness) of femurs” value was “no longer caused damage to bone strength” and the “cortical bone thickness of femurs” value is “did not cause a significant decrease compared with vehicle treatment”. In addition, in data set [1] (0.25 mg kg^-1 daily), the “bone strength (stiffness) of femurs” value is “no longer caused damage to bone strength” and the “cortical bone thickness of femurs” value was “only caused a mild decrease”. Besides, the “growth inhibition (body weight)” value in data set [2] is listed as “did not cause a significant growth inhibition”.
